Structures are written as SMILES. Like-named read-outs stand apart in the source and are kept apart here.

The target in the experiment is T1, human CB2R (Homo sapiens, UniProt P34972).
T1 construct: host or cells: CHO cells
The experiment can be described thus: CB2R mediated modulation of cAMP synthesis. In kind it is cell-based. How it is done: B. CB2R Mediated Modulation of cAMP Synthesis:
Compounds of the invention were evaluated for their CB2 agonist or inverse agonistic activity in accordance with the following experimental method.
CHO cells expressing human CB2R (Euroscreen) were plated at a density of 5000 cells per well in 384 well plates and incubated overnight at 37° C. After removing the media, the cells were treated with test compounds diluted in stimulation buffer containing 1 mM IBMX, 0.25% BSA and 10 uM Forskolin. The assay was incubated for 30 minutes at 37° C. Cells were lysed and the cAMP concentration was measured using DiscoverX-XS cAMP kit, following the manufacturer's protocol. In this setting, agonists will decrease forskolin induced production of cAMP while inverse agonists will further increase forskolin induced production of cAMP. EC50 of agonists were calculated as follows. The maximal amount of cAMP produced by forskolin compared to the level of cAMP inhibited by 1 uM CP55940 is defined as 100%. The EC50 value of each test compound was determined as the concentration at which 50% of the forskolin-stimulated cAMP synthesis was inhibited. Data was analyzed using a four-parameter logistic model. (Model 205 of XLfit 4.0).

T1 sequence (P34972 whole entry): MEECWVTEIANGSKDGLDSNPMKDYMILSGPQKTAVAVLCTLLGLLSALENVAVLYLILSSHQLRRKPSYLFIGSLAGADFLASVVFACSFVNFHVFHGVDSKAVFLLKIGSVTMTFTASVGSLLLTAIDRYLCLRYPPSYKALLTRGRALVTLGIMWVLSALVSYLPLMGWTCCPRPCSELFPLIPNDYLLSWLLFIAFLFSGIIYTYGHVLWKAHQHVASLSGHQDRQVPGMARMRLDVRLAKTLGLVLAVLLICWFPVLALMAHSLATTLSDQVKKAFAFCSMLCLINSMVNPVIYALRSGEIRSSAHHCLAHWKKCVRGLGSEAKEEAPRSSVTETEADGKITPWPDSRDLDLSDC

Usually EC50 stands for the concentration needed to bring the measured effect to its halfway point. Compound `CC(C)(Oc1ccc(Cl)cc1)C(=O)Nc1cc(C(C)(C)C)on1` [Example 1, N-(5-tert-Butyl-isoxazol-3-yl)-2-(4-chloro-phenoxy)-2-methyl-propionamide] showed an EC50 of 2.4 nM.
In turn, `CC(C)(OCC1CCOCC1)C(=O)Nc1cc(C(C)(C)C)no1` [Example 2, N-(3-tert-Butyl-isoxazol-5-yl)-2-methyl-2-(tetrahydro-pyran-4-ylmethoxy)-propionamide] gave an EC50 of 8.1 nM.
The same measure, in the same setting: the value for `CC(C)(OCC1CCOCC1)C(=O)Nc1cc(C(C)(C)C)on1` [Example 3, N-(5-tert-Butyl-isoxazol-3-yl)-2-methyl-2-(tetrahydro-pyran-4-ylmethoxy)-propionamide] was 50 nM; that for `CC(C)(OC1CCOCC1)C(=O)Nc1cc(C(C)(C)C)no1` [Example 4, N-(3-tert-Butyl-isoxazol-5-yl)-2-methyl-2-(tetrahydro-pyran-4-yloxy)-propionamide] was 107 nM; that for `CC(C)(OC1CCOCC1)C(=O)Nc1cc(C(C)(C)C)on1` [Example 5, N-(5-tert-Butyl-isoxazol-3-yl)-2-methyl-2-(tetrahydro-pyran-4-yloxy)-propionamide] was 123 nM.
Same read-out and setting: the same measure for `CC(C)(OCC1CCOCC1)C(=O)Nc1nc(-c2ccccc2)n[nH]1` [Example 6, 2-Methyl-N-(5-phenyl-2H-1,2,4-triazol-3-yl)-2-(tetrahydro-pyran-4-ylmethoxy)-propionamide]: 51 nM; for `CC(C)(OC1CCOCC1)C(=O)Nc1nc(-c2ccccc2)n[nH]1` [Example 7, 2-Methyl-N-(5-phenyl-2H-1,2,4-triazol-3-yl)-2-(tetrahydro-pyran-4-yloxy)-propionamide]: 235 nM.
For `CC(C)(Oc1ccc(C(F)(F)F)cn1)C(=O)Nc1cc(C(C)(C)C)no1` [Example 8, N-(3-tert-Butyl-isoxazol-5-yl)-2-methyl-2-(5-trifluoromethyl-pyridin-2-yloxy)-propionamide], the EC50 worked out at 0.1 nM.
Still for that read-out and setting: the same measure for `COc1ccc(NC(C)(C)C(=O)Nc2cc(C(C)(C)C)on2)cc1` [Example 9, N-(5-tert-Butyl-isoxazol-3-yl)-2-(4-methoxy-phenylamino)-2-methyl-propionamide]: 8.7 nM.
Consider `CC(C)NC(C)(C)C(=O)Nc1cc(C(C)(C)C)on1` [Example 10, N-(5-tert-Butyl-isoxazol-3-yl)-2-isopropylamino-2-methyl-propionamide], for which a half-maximal response (EC50) required 100 nM.
In turn, `CCC(C)NC(C)(C)C(=O)Nc1cc(C(C)(C)C)on1` (stereo not drawn) [Example 11, 2-sec-Butylamino-N-(5-tert-butyl-isoxazol-3-yl)-2-methyl-propionamide] showed a concentration for a half-maximal effect (EC50) of 177 nM.
The same measure, in the same setting: the same measure for `CC(C)N(C)C(C)(C)C(=O)Nc1cc(C(C)(C)C)on1` [Example 12, N-(5-tert-Butyl-isoxazol-3-yl)-2-(isopropyl-methyl-amino)-2-methyl-propionamide]: 8.4 nM; for `CC(C)(C)c1cc(NC(=O)C(C)(C)N2CCOCC2)no1` [Example 13, N-(5-tert-Butyl-isoxazol-3-yl)-2-morpholin-4-yl-isobutyramide]: 45 nM; for `CC(C)(NC1CCCCC1)C(=O)Nc1cc(C(C)(C)C)on1` [Example 14, N-(5-tert-Butyl-isoxazol-3-yl)-2-cyclohexylamino-2-methyl-propionamide]: 9.5 nM.
Regarding `CCCCNC(C)(C)C(=O)Nc1cc(C(C)(C)C)on1` [Example 17, 2-Butylamino-N-(5-tert-butyl-isoxazol-3-yl)-2-methyl-propionamide], it took 96 nM to reach a half-maximal effect (EC50).
Same read-out and setting: the value for `CC1CCCN(C(C)(C)C(=O)Nc2cc(C(C)(C)C)on2)C1` (stereo not drawn) [Example 19, N-(5-tert-Butyl-isoxazol-3-yl)-2-(3-methyl-piperidin-1-yl)-isobutyramide] was 0.34 nM; that for `CC1CCCN1C(C)(C)C(=O)Nc1cc(C(C)(C)C)on1` (stereo not drawn) [Example 20, N-(5-tert-Butyl-isoxazol-3-yl)-2-(2-methyl-pyrrolidin-1-yl)-isobutyramide] was 24 nM; that for `CC1CCN(C(C)(C)C(=O)Nc2cc(C(C)(C)C)on2)CC1` [Example 21, N-(5-tert-Butyl-isoxazol-3-yl)-2-(4-methyl-piperidin-1-yl)-isobutyramide] was 2.6 nM.
Turning to `CC(C)(C)c1cc(NC(=O)C(C)(C)N2CCSCC2)no1` [Example 22, N-(5-tert-Butyl-isoxazol-3-yl)-2-thiomorpholin-4-yl-isobutyramide], the EC50 was 9.9 nM.
On the same count and under the same terms, the value for `CC(C)(NC1CC1)C(=O)Nc1cc(C(C)(C)C)on1` [Example 23, N-(5-tert-Butyl-isoxazol-3-yl)-2-cyclopropylamino-2-methyl-propionamide] was 235 nM; that for `CC1CCCCN1C(C)(C)C(=O)Nc1cc(C(C)(C)C)on1` (stereo not drawn) [Example 24, N-(5-tert-Butyl-isoxazol-3-yl)-2-(2-methyl-piperidin-1-yl)-isobutyramide] was 1.2 nM; that for `COC1CCN(C(C)(C)C(=O)Nc2cc(C(C)(C)C)on2)CC1` [Example 25, N-(5-tert-Butyl-isoxazol-3-yl)-2-(4-methoxy-piperidin-1-yl)-isobutyramide] was 0.21 nM.
On the same count and under the same terms, the same measure for `CC(C)(C)c1cc(NC(=O)C(C)(C)N2CCCCC2)no1` [Example 26, N-(5-tert-Butyl-isoxazol-3-yl)-2-piperidin-1-yl-isobutyramide]: 0.55 nM; for `CC(C)(C)c1cc(NC(=O)C(C)(C)N2CCCC2)no1` [Example 27, N-(5-tert-Butyl-isoxazol-3-yl)-2-pyrrolidin-1-yl-isobutyramide]: 23 nM.
Same read-out and setting: the same measure for `CC(C)(C)c1cc(NC(=O)C(C)(C)N2CCC(F)(F)CC2)no1` [Example 28, N-(5-tert-Butyl-isoxazol-3-yl)-2-(4,4-difluoro-piperidin-1-yl)-isobutyramide]: 24 nM.
`CC(C)(NC1CCCCC1)C(=O)Nc1ccc(C(F)(F)F)cn1` [Example 29, 2-Cyclohexylamino-2-methyl-N-(5-trifluoromethyl-pyridin-2-yl)-propionamide]: the EC50 (CHO cells expressing human CB2R, concentration at which 50% of the forskolin-stimulated cAMP synthesis was inhibited, 100% defined by 1 uM CP55940, read-out: CB2 EC50) was 469 nM.
In the case of `CC(C)(C(=O)Nc1ccc(C(F)(F)F)cn1)N1CCCCC1` [Example 32, 2-Piperidin-1-yl-N-(5-trifluoromethyl-pyridin-2-yl)-isobutyramide], the EC50 came out at 127 nM.
The same measure, in the same setting: the value for `CC(C)(C)c1cc(NC(=O)C(C)(C)n2ccc3cc(Cl)ccc32)no1` [Example 35, N-(5-tert-Butyl-isoxazol-3-yl)-2-(5-chloro-indol-1-yl)-isobutyramide] was 0.22 nM; that for `CC(C)(C)c1cc(NC(=O)C(C)(C)N2CCC3(CCCCC3)C2)on1` [Example 36, 2-(2-Aza-spiro[4.5]dec-2-yl)-N-(3-tert-butyl-isoxazol-5-yl)-isobutyramide] was 0.45 nM; that for `CC(C)(NCC1CCOCC1)C(=O)Nc1cc(C(C)(C)C)no1` [Example 37] was 14 nM.
On the same count and under the same terms, the value for `CC(C)(NCC1CCOCC1)C(=O)Nc1cc(C(C)(C)C)on1` [Example 38, N-(5-tert-Butyl-isoxazol-3-yl)-2-methyl-2-[(tetrahydro-pyran-4-ylmethyl)-amino]-propionamide] was 125 nM; that for `CC(C)(NC1CCOCC1)C(=O)Nc1cc(C(C)(C)C)no1` [Example 39, N-(3-tert-Butyl-isoxazol-5-yl)-2-methyl-2-(tetrahydro-pyran-4-ylamino)-propionamide] was 29 nM.
On the same count and under the same terms, the value for `CC(C)(NC1CCOCC1)C(=O)Nc1cc(C(C)(C)C)on1` [Example 40, N-(5-tert-Butyl-isoxazol-3-yl)-2-methyl-2-(tetrahydro-pyran-4-ylamino)-propionamide] was 35 nM; that for `CC(C)(NCC1CCOCC1)C(=O)Nc1nc(-c2ccccc2)n[nH]1` [Example 41, 2-Methyl-N-(5-phenyl-2H-1,2,4-triazol-3-yl)-2-[(tetrahydro-pyran-4-ylmethyl)-amino]-propionamide] was 98 nM; that for `CC(C)(NC1CCOCC1)C(=O)Nc1nc(-c2ccccc2)n[nH]1` [Example 42, 2-Methyl-N-(5-phenyl-2H-1,2,4-triazol-3-yl)-2-(tetrahydro-pyran-4-ylamino)-propionamide] was 260 nM.
Take `CC(C)(Nc1ccc(C(F)(F)F)cc1)C(=O)Nc1cc(C(C)(C)C)no1` [Example 43, N-(3-tert-Butyl-isoxazol-5-yl)-2-methyl-2-(4-trifluoromethyl-phenylamino)-propionamide]: the EC50 was 1.1 nM.
In turn, `CC(C)(Nc1ccc(C(F)(F)F)cn1)C(=O)Nc1cc(C(C)(C)C)no1` [Example 46, N-(3-tert-Butyl-isoxazol-5-yl)-2-methyl-2-(5-trifluoromethyl-pyridin-2-ylamino)-propionamide] registered an EC50 of 0.78 nM.
For `CC(C)(Nc1ccc(C(F)(F)F)cn1)C(=O)Nc1cc(C(C)(C)C)on1` [Example 47, N-(5-tert-Butyl-isoxazol-3-yl)-2-methyl-2-(5-trifluoromethyl-pyridin-2-ylamino)-propionamide], the half-maximal effective concentration (EC50) was 20 nM.
On the same count and under the same terms, the same measure for `CN(C(C)(C)C(=O)Nc1cc(C(C)(C)C)on1)S(=O)(=O)c1ccc(Cl)cc1` [Example 48, N-(5-tert-Butyl-isoxazol-3-yl)-2-[(4-chloro-benzenesulfonyl)-methyl-amino]-2-methyl-propionamide]: 0.36 nM.

For the origin of these results see patent US8957063B2, “Amine and ether compounds which modulate the CB2 receptor” (priority 2008, dated 2015).
